Holding throughout (type): cell-based
In experiment [1] the target is T1, NK1R M291F (Homo sapiens, UniProt P25103, M291F).
T1 construct: host or cells: COS7
Put plainly: IP3 accumulation assay (Gq). The following applies: COS-7, COS7 cells, [3H]inositol, 10 mM LiCl, 150 min 37 °C, mean ± SEM of three independent experiments. The procedure:
(§1) COS7 cells were tested monthly for mycoplasma and kept negative. COS7 cells were plated in either clear, white, or white with clear bottom 96-well plates that were coated with poly-D-lysine (Sigma-Aldrich) 30 min prior to cell seeding (20,000 cells/well). The following day plates were transiently transfected using calcium precipitation with 200 ng/well DNA in a culture medium with the addition of 100μM (final concentration) chloroquine. Transfection was stopped 5 h later with the addition of a fresh maintenance medium. Fig. […] COS7 cells seeded in clear 96-well plates were incubated with 0.5 μCi/ml myo [3H]inositol (Perkin Elmer) in 100 μl growth medium overnight following the transfection. The subsequent day cells were washed twice with 200 μl/well HBSS (GIBCO, Life Technologies) and preincubated for 5 min at 37 °C with 100 μl/well HBSS buffer supplemented with 10 mM LiCl. Ligand addition was followed by 150 min incubation at 37 °C. To stop ligand incubation, cells were lysed with 40 μl 10 mM formic acid followed by 30 min incubation on ice. Thirty five microliters of the lysate was transferred to white 96-well plates together with 60 μl of 1:8 diluted YSi SPA scintillation beads (Perkin Elmer). Plates were sealed and vigorously shaken for 15 min, followed by 5 min centrifugation at 1500 rpm. Measurements (scintillation) were recorded on a Microbeta (PerkinElmer) after a 4 h delay and determinations were made in duplicates. All dose-response curves have been calculated using Prism 10 software (GraphPad Software, www.graphpad.com) nonlinear regression with four parameters. All data are shown as mean ± SEM unless stated otherwise and consist of two technical replicates from three biological replicates.

The target in another experiment is T2, NK1R F264Y (Homo sapiens, UniProt P25103, F264Y).
T2 construct: host or cells: COS7
T2 sequence (P25103 whole entry F264Y): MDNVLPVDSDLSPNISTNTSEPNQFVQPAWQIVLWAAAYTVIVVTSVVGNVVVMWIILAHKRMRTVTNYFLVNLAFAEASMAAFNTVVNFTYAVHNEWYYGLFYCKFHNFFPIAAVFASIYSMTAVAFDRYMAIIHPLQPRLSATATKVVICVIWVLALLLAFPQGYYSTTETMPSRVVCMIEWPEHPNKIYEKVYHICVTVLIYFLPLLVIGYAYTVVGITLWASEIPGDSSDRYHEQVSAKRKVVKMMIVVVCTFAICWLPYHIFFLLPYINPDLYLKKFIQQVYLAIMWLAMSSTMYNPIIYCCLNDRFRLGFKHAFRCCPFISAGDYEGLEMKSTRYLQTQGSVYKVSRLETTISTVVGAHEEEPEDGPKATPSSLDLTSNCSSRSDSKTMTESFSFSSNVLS
Description: IP3 accumulation assay (Gq). The following applies: COS-7, COS7 cells, [3H]inositol, 10 mM LiCl, 150 min 37 °C, mean ± SEM of three independent experiments. As to the method:
as §1

For experiment [2], the target named is T3, NK1R F264Y M291F (Homo sapiens, UniProt P25103, F264Y/M291F).
T3 construct: host or cells: COS7
T3 sequence (P25103 whole entry F264Y/M291F): as the sequence (P25103 whole entry F264Y) above, with M291F counted along it
Description: IP3 accumulation assay (Gq). The following applies: COS-7, COS7 cells, [3H]inositol, 10 mM LiCl, 150 min 37 °C, mean ± SEM of three independent experiments. The procedure: as §1

Experiment [3] has as its target T1, NK1R M291F. Put plainly: BRET-based cAMP assay (Gs). The following applies: COS-7, COS7 cells, CAMYEL BRET sensor, four-parameter fit, mean ± SEM of three independent experiments. As to the method:
(§2) COS7 cells were tested monthly for mycoplasma and kept negative. COS7 cells were plated in either clear, white, or white with clear bottom 96-well plates that were coated with poly-D-lysine (Sigma-Aldrich) 30 min prior to cell seeding (20,000 cells/well). The following day plates were transiently transfected using calcium precipitation with 200 ng/well DNA in a culture medium with the addition of 100μM (final concentration) chloroquine. Transfection was stopped 5 h later with the addition of a fresh maintenance medium. Fig. […] The intracellular level of cAMP was monitored in real-time using BRET. This was achieved by implementing a construct consisting of a cAMP binding protein (exchange protein activated by cAMP [EPAC]) which has been flanked by a BRET pair consisting of Rluc and yellow fluorescent protein. This construct is called CAMYEL (cAMP sensor using yellow fluorescent protein-EPAC-Rluc) and enables cAMP production to be sensed as EPAC changes conformation in response to increasing levels of cAMP, ultimately resulting in a loss of BRET signal. […] The BRET signal was calculated as the ratio of emission intensity at 535 nm (citrine) to the emission intensity at 475 nm (luciferase). […] All dose-response curves have been calculated using Prism 10 software (GraphPad Software, www.graphpad.com) nonlinear regression with four parameters. […]

The target of experiment [4] is T3, NK1R F264Y M291F. Description: BRET-based cAMP assay (Gs). The settings on record: COS-7, COS7 cells, CAMYEL BRET sensor, four-parameter fit, mean ± SEM of three independent experiments. As to the method:
as §2
A general note: BRET reads energy transfer from a luciferase to a nearby fluorophore.

By Emax is commonly meant the greatest response seen or fitted, relative to the assay's reference.

T1 sequence (P25103 whole entry M291F): as the sequence (P25103 whole entry F264Y) above, with Y264F, M291F counted along it

As to `CSCC[C@H](NC(=O)[C@H](CC(C)C)NC(=O)CNC(=O)[C@@H](NC(=O)[C@H](Cc1ccccc1)NC(=O)[C@H](CO)NC(=O)[C@H](CC(=O)O)NC(=O)[C@@H](NC(=O)[C@H](CCCCN)NC(=O)[C@@H](N)Cc1c[nH]cn1)[C@@H](C)O)C(C)C)C(N)=O` [NKA, neurokinin A], the Emax at NK1R M291F [1] came out at 102 ± 12.7%; on NK1R F264Y, 105 ± 6.3%; at NK1R F264Y M291F [2] it was 102 ± 11%; on NK1R M291F [3], 99.9%; at NK1R F264Y M291F [4] it was 125%.

The values above are taken from article PMC11625327, “Molecular determinants of neuropeptide-mediated activation mechanisms in tachykinin NK1 and NK2 receptors” (The Journal of Biological Chemistry, 2024).
